Assay results taken from US10738031B2, “N-[(heteroaryloxy)propanyl]heteroaryl carboxamides as antagonists of orexin subtype 1 receptor activity” (Boehringer Ingelheim International GmbH, priority 2016, dated 2020).

Tests used:
human Orexin 1 receptor = biological target: T1, human Orexin 1 receptor (Homo sapiens, UniProt O43613); experiment: Assay A: OX1R IP1 (in vitro OX1R potency); type: cell-based; conditions: for Kb: Table 3
T1 construct: stably expressing the full-length human Orexin 1 receptor; expressed in transfected cells; host or cells: CHO-K1 (CHO-K1/hOX1), co-expressing aequorin
T1 sequence (O43613 1-425): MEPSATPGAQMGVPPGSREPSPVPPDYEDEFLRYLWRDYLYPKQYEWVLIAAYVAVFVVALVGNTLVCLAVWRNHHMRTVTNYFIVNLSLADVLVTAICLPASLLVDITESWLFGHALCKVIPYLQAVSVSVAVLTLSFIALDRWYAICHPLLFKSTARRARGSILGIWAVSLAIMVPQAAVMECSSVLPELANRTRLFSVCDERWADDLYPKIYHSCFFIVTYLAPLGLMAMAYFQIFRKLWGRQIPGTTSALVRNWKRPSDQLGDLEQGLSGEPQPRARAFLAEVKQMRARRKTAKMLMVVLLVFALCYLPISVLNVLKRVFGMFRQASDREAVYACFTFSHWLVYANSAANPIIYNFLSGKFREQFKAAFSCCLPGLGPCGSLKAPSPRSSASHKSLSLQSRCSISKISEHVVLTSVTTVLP

human orexin 2 receptor = biological target: T2, human orexin 2 receptor (Homo sapiens, UniProt O43614); experiment: Assay B: OX2R IP1 (in vitro OX2R potency); type: cell-based; conditions: Table 3; 0.5 nM Orexin A concentration
T2 construct: stably expressing the full-length human orexin 2 receptor; expressed in transfected cells; host or cells: CHO-K1 (CHO-K1/hOX2), co-expressing aequorin
T2 sequence (O43614 1-444): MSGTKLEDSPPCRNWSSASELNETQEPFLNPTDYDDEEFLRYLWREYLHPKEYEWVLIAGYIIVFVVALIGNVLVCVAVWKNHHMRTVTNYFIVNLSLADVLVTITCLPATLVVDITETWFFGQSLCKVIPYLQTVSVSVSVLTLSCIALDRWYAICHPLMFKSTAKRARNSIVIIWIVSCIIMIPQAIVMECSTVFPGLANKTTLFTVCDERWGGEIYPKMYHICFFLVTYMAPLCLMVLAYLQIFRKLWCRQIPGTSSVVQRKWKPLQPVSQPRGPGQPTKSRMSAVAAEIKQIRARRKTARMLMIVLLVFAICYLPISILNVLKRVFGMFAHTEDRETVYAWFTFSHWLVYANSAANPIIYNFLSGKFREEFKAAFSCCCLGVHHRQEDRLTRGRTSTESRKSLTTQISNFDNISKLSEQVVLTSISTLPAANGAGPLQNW
From the text: Activation of the orexin receptors expressed in cell lines results in an increase in intracellular IP3 concentration. IP1, a downstream metabolite of IP3, accumulates in cells following receptor activation and is stable in the presence of LiCl. Using Homogeneous Time-Resolved Fluorescence technology with Lumi4-Tb cryptate (commercially available from Cisbio Bioassay.) and a suitable fluorescence plate reader. This functional response is detectable and quantifiable as described in Trinquet et al. Anal. […] Curr. Chem. Genomics 2009, 3, 22-32. This technique is used to characterize pharmacological modification of the orexin receptors. B. In Vitro Testing of OX2R Potency: OX2R IP1 IP1 measurements are performed in CHO-K1 cells stably expressing the full-length human orexin 2 receptor and the aequorin photoprotein. Cells are cultivated in Ham's nutrient mixture F12 medium with 10% fetal calf serum, in a 37° C., 95% humidity and 5% CO2 incubator. The CHO-K1/hOX2 cell mass is expanded to larger cell numbers. The cells are obtained as frozen cells in cryo-vials and stored until use at -150° C. The viability of the cells after thawing is >90%. In preparation for the assay, 24 hours before the assay, the cells are thawed at 37° C. and immediately diluted with cell culture medium. After centrifugation, the cell pellet is resuspended in medium and then distributed into the assay plates with a density of 5000 cells/25 μL per well. The plates are incubated for one hour at room temperature to reduce edge effects before they are incubated for 24 hours at 37° C./5% CO2. […] On the day of the assay, cells in the plate are washed twice with 60 μL assay buffer (20 μL buffer remained in the wells after washing), followed by adding 5 μL per well of compounds diluted in assay buffer. […] The assay plate is incubated for 60 minutes at 37° C. Then 5 μL per well of Anti-IP1-Cryptate Tb solution and 5 μL per well of IP1-d2 dilution are added to all well of the plate and the plate is incubated for a further 60 minutes light protected at room temperature. […] The ratio between the emission at 665 nm and 615 is calculated by the reader. […] AssayExplorer (Accelrys). In order to establish an agonist concentration independent parameter, Kb values are calculated using the following equation: […] Sci. 1993, 14(4), 110-112).

[1] = Assay C: Human MST t1/2 (stability in human liver microsomes); type: in vitro ADME; conditions: human liver microsomes

Row | SMILES | OX2R Kb/OX1R Kb (human Orexin 1 receptor) | Kb (human Orexin 1 receptor; Orexin A concentration 0.5 nM) [µM] | Kb (human Orexin 1 receptor; Orexin A concentration 50 nM) [µM] | Kb (human orexin 2 receptor) [µM] | half-life [1] [min]
1 | CCN(C(=O)c1cc(C(F)(F)F)cnc1-n1cccn1)[C@@H](C)COc1ccc(C(F)(F)F)cn1 [Example 3] | 177 | 0.0012 | 0.0012 | 0.212 | 83
2 | CCN(C(=O)c1cc(F)cnc1-c1ncccn1)[C@@H](C)COc1cnc(C(F)(F)F)cn1 [Example 45] | 332 | 0.02 | – | 6.65 | > 130
3 | CCN(C(=O)c1cc(OC)cnc1-n1nccn1)[C@@H](C)COc1ccc(Cl)cn1 [Example 43] | 171 | 0.0019 | – | 0.325 | 110
4 | CCN(C(=O)c1nc(C)ccc1-n1nccn1)[C@@H](C)COc1ncc(C(F)(F)F)cc1F [Example 12] | 268 | 0.00077 | – | 0.206 | 13
5 | CCN(C(=O)c1ncccc1-n1nccn1)[C@@H](C)COc1ccc(Cl)cn1 [Example 71] | 113 | 0.003 | – | 0.339 | 63
6 | CCN(C(=O)c1ccncc1-c1ccn(C)n1)[C@@H](C)COc1ccc(C(F)(F)F)cn1 [Example 29] | 184 | 0.0087 | – | 1.6 | 11
7 | CCN(C(=O)c1cnccc1-n1cccn1)[C@@H](C)COc1ccc(C(F)(F)F)cn1 [Example 69] | 139 | 0.0022 | – | 0.305 | 13
8 | CCN(C(=O)c1ncc(C)cc1-c1ccn(C)n1)[C@@H](C)COc1ccc(C(F)(F)F)cn1 [Example 20] | 1660 | – | 0.00025 | 0.415 | 24
9 | CCN(C(=O)c1cnc(C)nc1-c1ccccc1)[C@@H](C)COc1ncc(C(F)(F)F)cn1 [Example 11] | 860 | 0.0015 | – | 1.29 | 88
10 | CCN(C(=O)c1cnccc1-n1nccn1)[C@@H](C)COc1ncc(C(F)(F)F)cc1F [Example 42] | 210 | 0.0023 | – | 0.483 | 13
11 | CCN(C(=O)c1ccc(C)nc1-n1nccn1)[C@@H](C)COc1ncc(C(F)(F)F)cc1F [Example 60] | – | 0.00067 | 0.00066 | 0.882 | > 130
12 | CCN(C(=O)c1cc(OC)cnc1-n1nccn1)[C@@H](C)COc1ncc(C(F)(F)F)cc1F [Example 54] | 649 | 0.00089 | – | 0.578 | > 130
13 | CCN(C(=O)c1ncc(F)cc1-c1ccn(C)n1)[C@@H](C)COc1ccc(C(F)(F)F)cn1 [Example 37] | 243 | 0.0033 | – | 0.802 | 24
14 | CCN(C(=O)c1ccc(OC)nc1-c1ccn(C)n1)[C@@H](C)COc1ccc(C(F)(F)F)cn1 [Example 32] | 707 | – | 0.00015 | 0.106 | 12
15 | CCN(C(=O)c1cc(F)cnc1-n1nccn1)[C@@H](C)COc1ccc(C(F)(F)F)cn1 [Example 6] | – | 0.0012 | 0.0015 | 0.844 | > 130
16 | CCN(C(=O)c1ccc(C)nc1-n1nccn1)[C@@H](C)COc1cnc(C(F)(F)F)cn1 [Example 33] | 421 | 0.0078 | – | 3.28 | > 130
17 | CCN(C(=O)c1cc(F)cnc1-c1ncccn1)[C@@H](C)COc1ncc(C(F)(F)F)cc1F [Example 35] | 706 | 0.0046 | – | 3.25 | > 130

Row | SMILES | OX2R Kb/OX1R Kb (human Orexin 1 receptor) | Kb (human Orexin 1 receptor; Orexin A concentration 0.5 nM) [µM] | Kb (human Orexin 1 receptor; Orexin A concentration 50 nM) [µM] | Kb (human orexin 2 receptor) [µM] | half-life [1] [min]
18 | CCN(C(=O)c1nc(C)ccc1-n1nccn1)[C@@H](C)COc1ncc(C(F)(F)F)cn1 [Example 23] | 439 | 0.0066 | – | 2.9 | 110
19 | CCN(C(=O)c1cnccc1-n1nccn1)[C@@H](C)COc1ccc(Cl)cn1 [Example 48] | 147 | 0.0026 | – | 0.381 | 33
20 | CCN(C(=O)c1nccc(C(F)(F)F)c1-c1ccn(C)n1)[C@@H](C)COc1ccc(C(F)(F)F)cn1 [Example 50] | 236 | – | 0.00011 | 0.026 | 23
21 | CCN(C(=O)c1ccc(C)nc1-n1nccn1)[C@@H](C)COc1ncc(C(F)(F)F)cn1 [Example 30] | 641 | 0.0056 | – | 3.59 | > 130
22 | CCN(C(=O)c1ncccc1-c1ccn(C)n1)[C@@H](C)COc1ccc(C(F)(F)F)cn1 [Example 34] | 190 | 0.0015 | – | 0.285 | 81
23 | CCN(C(=O)c1cc(Cl)cnc1-n1nccn1)[C@@H](C)COc1ccc(C(F)(F)F)cn1 [Example 72] | – | 0.00037 | 0.00024 | 0.25 | > 130
24 | CCN(C(=O)c1c(F)cncc1-n1cccn1)[C@@H](C)COc1ccc(C(F)(F)F)cn1 [Example 24] | 167 | 0.0064 | – | 1.07 | 29
25 | CCN(C(=O)c1cccnc1-n1nccn1)[C@@H](C)COc1ccc(Cl)cn1 [Example 51] | 138 | 0.0083 | – | 1.14 | > 130
26 | CCN(C(=O)c1ccncc1-n1cccn1)[C@@H](C)COc1ccc(C(F)(F)F)cn1 [Example 40] | 120 | 0.013 | – | 1.56 | 10
27 | CCN(C(=O)c1ncccc1-n1nccn1)[C@@H](C)COc1ncc(C(F)(F)F)cc1F [Example 57] | 233 | 0.0018 | – | 0.419 | 56
28 | CCN(C(=O)c1cc(OC)cnc1-n1nccn1)[C@@H](C)COc1ccc(C(F)(F)F)cn1 [Example 56] | – | 0.0005 | 0.00049 | 0.26 | > 130
29 | CCN(C(=O)c1nc(C)ccc1-n1nccn1)[C@@H](C)COc1ccc(C(F)(F)F)cn1 [Example 5] | 393 | – | 0.00015 | 0.059 | 25
30 | CCN(C(=O)c1ncccc1-n1nccn1)[C@@H](C)COc1ccc(C(F)(F)F)cn1 [Example 26] | 281 | 0.00095 | – | 0.267 | > 130
31 | CCN(C(=O)c1c(F)ccnc1-c1ccn(C)n1)[C@@H](C)COc1ccc(C(F)(F)F)cn1 [Example 58] | 93 | 0.0035 | – | 0.327 | 41
32 | CCN(C(=O)c1ccc(C)nc1-n1nccn1)[C@@H](C)COc1ccc(C(F)(F)F)cn1 [Example 17] | 1618 | – | 0.00022 | 0.356 | 59
33 | CC[C@@H](CNc1ccc(C(F)(F)F)cn1)N(CC)C(=O)c1nc(C)ccc1-n1nccn1 [Ex 71 in WO2016/ 034882, reference compound] | – | – | – | 0.027 | 4.5
